Results: patent US4265912A, “Glaucine lactate salts” (priority 1979, dated 1981)
Structures can show the parent of a compound that is named as a salt. Where two headings read alike, the source gives them in different places.

Tests used:
mice = assay type: in vivo; settings: for stimulation and Straub tail: mouse, in vivo, 100 mg/kg; for mice jumping after naloxone: naloxone 100 mg/kg intraperitoneal after increasing doses on two consecutive days
Procedure: Physical dependency liability was evaluated in mice by the procedure of Saelens, et al., Arch. Int. Pharmacodynam, 190:213-218, 1971. In this procedure, mice are administered increasing doses of a test compound at intervals on two consecutive days. The last dosage on the second day is followed by intraperitoneal injection of the morphine antagonist, naloxone, at a dosage of 100 mg/kg, and the mice are observed for characteristic jumping behaviour indicative of opiate withdrawals or morphine antagonism.

[1] = stability of syrup with continuous exposure to light in amber and flint glass bottles; assay type: physicochemical; settings: for assay after one month with continuous exposure to light, amber glass bottles / assay after one month with continuous exposure to light, flint glass bottles: ambient temperature, about 2000 Foot-candles, 24 hours/day, 43800 min; for assay after one month with continuous exposure to light, flint glass bottles: transparent (flint) glass
Procedure: In a procedure similar to that of Example 5, syrup formulations were prepared, placed in amber glass bottles and transparent (flint) glass bottles, and held under conditions of ambient temperature with continuous exposure to light. (About 2000 Foot-candles of combined fluorescent and incandescent light, for 24 hours/day.)

[2] = solubility in cough syrup vehicle; assay type: physicochemical; settings: cough syrup vehicle of Example 4
Procedure: A cough syrup vehicle formulation was prepared containing the following pharmaceutically-acceptable excipients: […]

[3] = assay type: physicochemical; settings: syrup; for percent of original concentration retained after one month: 0.6 percent d,l-glaucine lactate, 0.2 percent codeine phosphate or d,l-glaucine hydrobromide, 43800 min; for Percentage Remaining after 3 months at 40° C. / Percentage Remaining after 3 months at 55° C. / Percentage Remaining after 3 months at Ambient: 131400 min
Procedure: Stability of d,l-glaucine lactate was examined in the syrup vehicle of Example 4.
Syrups containing codeine phosphate, 0.2 percent, contained 97.5, 104.5 or 100 percent, respectively, after one month at ambient temperature, 40° C. or 55° C. […] After three months, the percentage amount of antitussive agent remaining was as shown below

[4] = tested on: guinea pigs (coughing, citric acid aerosol); assay: antitussive activity, citric acid aerosol test, intraperitoneal injection; assay type: in vivo; settings: Cavia porcellus, ip
Procedure: Separate groups of guinea pigs were orally administered various doses of a test compound, or distilled water for a control group. One hour after oral dosing, the guinea pigs were exposed to a 5 percent aerosol of citric acid for a 10 minute test period. The number of cough responses produced during the last five minutes of exposure to the citric acid aerosol was recorded and the dosage effect to suppress coughing in 50 percent of the guinea pigs (ED50) was calculated. An antitussive effect was recorded for a guinea pig when its total number of coughs during the 5 minute test period were at least two standard deviation units below the mean number of coughs per guinea pig in the control group. […]; In an operation similar to that of Example 2, test compounds were administered to guinea pigs by intraperitoneal injection, with one group of guinea pigs receiving distilled water as a control. ED50 's were calculated for antitussive activity in the citric acid aerosol test as described in Example 2. […];

[5] = tested on: guinea pigs (coughing, citric acid aerosol); assay: antitussive activity, citric acid aerosol test, oral; assay type: in vivo; settings: Cavia porcellus, 1 h, 5 percent citric acid aerosol one hour after dosing
Procedure: Separate groups of guinea pigs were orally administered various doses of a test compound, or distilled water for a control group. One hour after oral dosing, the guinea pigs were exposed to a 5 percent aerosol of citric acid for a 10 minute test period. The number of cough responses produced during the last five minutes of exposure to the citric acid aerosol was recorded and the dosage effect to suppress coughing in 50 percent of the guinea pigs (ED50) was calculated. An antitussive effect was recorded for a guinea pig when its total number of coughs during the 5 minute test period were at least two standard deviation units below the mean number of coughs per guinea pig in the control group. […];

[6] = tested on: mouse (phenyl-p-quinone writhing); assay: analgesic activity, phenyl-p-quinone mouse writhing test; assay type: in vivo; settings: oral, 30 minutes prior to phenyl-p-quinone challenge
Procedure: Test compounds were evaluated for analgesic activity in the phenyl-p-quinone mouse writhing test of Hendershot & Forsaith, J. Pharmacol. Exptl. Therap. 125(3) 237 (1959). The test compounds were administered orally 30 minutes prior to the phenyl-p-quinone challenge.

[7] = stability of crystalline d,l-glaucine lactate on storage; assay type: physicochemical; settings: crystalline solid, 2 months storage at 40° C., read-out: percent of original assay retained, crystalline solid

SMILES	stimulation and Straub tail (mice)	mice jumping after naloxone (mice)	assay after one month with continuous exposure to light, amber glass bottles [1]	assay after one month with continuous exposure to light, flint glass bottles [1]	ED50 [4]	ED50 [5]	ED50 [6]	percent of original concentration retained after one month ([3]; 40° C.)	percent of original concentration retained after one month ([3]; 55° C.)	percent of original concentration retained after one month ([3]; ambient temperature)	Percentage Remaining after 3 months at 40° C. ([3]; 40° C.)	Percentage Remaining after 3 months at 55° C. ([3]; 55° C.)	Percentage Remaining after 3 months at Ambient [3]	further results
COc1cc2c(cc1OC)-c1c(OC)c(OC)cc3c1C(C2)N(C)CC3 (racemic) [d,l-Glaucine lactate (2:3)]	no Straub tail	no jumping behaviour in any of the ten mice												
COc1cc2c(cc1OC)-c1c(OC)c(OC)cc3c1C(C2)N(C)CC3 (racemic) [d,l-glaucine hydrobromide]														assay after one month with continuous exposure to light, amber glass bottles ([1]; hydrobromide): 84%; assay after one month with continuous exposure to light, flint glass bottles ([1]; hydrobromide): 74.5%; solubility in cough syrup vehicle ([2]; hydrobromide): 0.3%; solubility in cough syrup vehicle per 5 milliliter dosage unit ([2]; hydrobromide): about 15 milligrams per 5 milliliter dosage unit; percent of original concentration retained after one month ([3]; 40° C., hydrobromide): 96%; percent of original concentration retained after one month ([3]; 55° C., hydrobromide): 89.5%; percent of original concentration retained after one month ([3]; ambient temperature, hydrobromide): 99%; Percentage Remaining after 3 months at 40° C. ([3]; 40° C., listed as d,l-Glaucine . HBr, hydrobromide): 93.3%; Percentage Remaining after 3 months at 55° C. ([3]; 55° C., listed as d,l-Glaucine . HBr, hydrobromide): 91.4%; Percentage Remaining after 3 months at Ambient ([3]; listed as d,l-Glaucine . HBr, hydrobromide): 100.8%
COc1cc2c(cc1OC)-c1c(OC)c(OC)cc3c1C(C2)N(C)CC3 (racemic) [d,l-glaucine lactate]			94%	80.6%	7.9 mg/kg	63.4 mg/kg	25.5 mg/kg	100.6%	96.7%	98.8%	97.0%	97.4%	104.1%	solubility in cough syrup vehicle [2]: 2%; solubility in cough syrup vehicle per 5 milliliter dosage unit [2]: about 100 milligrams per 5 milliliter dosage unit; remaining at 1460 h [7]: > 99%
COc1ccc2c3c1O[C@H]1[C@@H](O)C=C[C@H]4[C@@H](C2)N(C)CC[C@@]341 [codeine phosphate]	Straub tail and stimulation	2 of 6	100%	100%	10.9 mg/kg	86.6 mg/kg	21.2 mg/kg	104.5%	100%	97.5%	101.1%	88.4%	101.3%	stability in both types of container ([1]; amber and flint glass, light, one month): appeared stable in both types of container; total number of jumps after naloxone (mice; naloxone 100 mg/kg intraperitoneal): 23 jumps total
COc1cc2c(cc1OC)-c1c(OC)c(OC)cc3c1[C@H](C2)N(C)CC3 [d-glaucine hydrobromide]					10 mg/kg	89 mg/kg	34 mg/kg							
